Test results: patent publication US20230338250A1, “Compositions Comprising One or More (Bio)-Alkanediols with Active Ingredients” (Symrise AG, priority 2020, published 2023)

Tests used:
[1] = Example 2 solubility of alkanediols in water (maximum water solubility, visual observation); assay type: physicochemical; conditions: assessed at ambient temperature after 24 h storage at 5° C.
Source text: The water solubility of a substance is the saturation mass concentration of the substance in water at a given temperature. The determination of the solubility in water relates to essentially pure substances which are stable in water and not volatile.
For the determination of the maximum water solubility of an alkanediol, water and different concentrations of the respective alkanediol were blended by stirring. […] The determination of whether the alkanediol has dissolved in water is based entirely on visual observation.

[2] = Example 1.2 solubility improvement for Hydrocortisone with 1,2-alkanediols: visual appearance; assay type: physicochemical; conditions: 0.2 % Hydrocortisone; 1.0 % 1,2-alkanediol; after 3 days 23° C.
Procedure: Production method: A premix B was prepared by mixing solvent, solubilizer and diol. Hydrocortisone was added. The mixture was heated to 70° C. to solve the active component while stirring with a magnetic stirrer. The mixture was stirred for further 5 minutes at 70° C. Water was added and the mixture was cooled while stirring (10 min).
The visual appearance of the sample solutions was evaluated according to the following scale:
The images of the sample solutions A (containing 1,2-pentanediol), B (containing 1,2-hexanediol), C (containing 1,2-heptanediol) and D (containing 1,2-octanediol) are shown in FIG. 3.

Row | Maximum solubility in water (% by weight) [1] [% by weight] | crystallization/sedimentation, transparency, turbidity compared between samples [2] | SMILES
1 | 0.5 |  | CCCCCCC(O)CO (stereo not drawn) [Hydrolite® 8, 1,2-octanediol]
2 | 1.5 |  | CCCCCC(O)C(C)O (stereo not drawn) [2,3-octanediol]
3 | 50 |  | CCCC(O)CO (stereo not drawn) [Hydrolite® 5 green, 1,2-pentanediol]
4 | 0.3 |  | CCCCCCC(O)C(C)O (stereo not drawn) [2,3-nonanediol]
5 | 2.5 | better solubility improving properties | CCCCCC(O)CO (stereo not drawn) [1,2-heptanediol]
6 | 50 |  | CCCCC(O)CO (stereo not drawn) [Hydrolite® 6, 1,2-hexanediol]
7 | 3.6 |  | CCCCC(O)C(C)O (stereo not drawn) [2,3-heptanediol]
8 | 0.1 |  | CCCCCCCC(O)CO (stereo not drawn) [1,2-nonanediol]
